Data taken from ChEMBL document CHEMBL1152144, “In situ blood-brain barrier permeability of a C-10 paclitaxel carbamate” (Bioorg Med Chem Lett, 2008).

System: Brain
Assay: Blood-brain barrier permeability in B6C3 mouse brain assessed as increase in drug level at 0.1 uCi, iv relative to [14C]paclitaxel
Assay type: ADME, organism-based
Conditions: in vivo

fold change (FC)	Structure (SMILES)
6	CC(=O)O[C@@]12CO[C@@H]1C[C@H](O)[C@@]1(C)C(=O)[C@H](OC(=O)CCC(=O)O)C3=C(C)[C@@H](OC(=O)[C@H](O)[C@@H](NC(=O)c4ccccc4)c4ccccc4)C[C@@](O)([C@@H](OC(=O)c4ccccc4)[C@H]21)C3(C)C
3	CC(=O)O[C@@]12CO[C@@H]1C[C@H](O)[C@@]1(C)C(=O)[C@H](OC(=O)N[14CH2][14CH2]O)C3=C(C)[C@@H](OC(=O)[C@H](O)[C@@H](NC(=O)c4ccccc4)c4ccccc4)C[C@@](O)([C@@H](OC(=O)c4ccccc4)[C@H]21)C3(C)C
